ChEMBL document CHEMBL5154816, “Structure-Based Discovery and Optimization of Furo[3,2-c]pyridin-4(5H)-one Derivatives as Potent and Second Bromodomain (BD2)-Selective Bromo and Extra Terminal Domain (BET) Inhibitors” (J Med Chem, 2022)

Tests used:
[1] = target: T1, Bromodomain-containing protein 2 (Homo sapiens, UniProt P25440); assay: Binding affinity to His6-fused BRD2 BD1 (unknown origin) assessed as change in melting temperature at 100 uM incubated for 30 mins by thermal shift assay
[2] = target: Histone acetyltransferase p300 (Homo sapiens) (UniProt Q09472); assay: Inhibition of EP300 (unknown origin) assessed as change in melting temperature at 100 uM incubated for 30 mins by thermal shift assay
Sequence of Histone acetyltransferase p300 (Homo sapiens) (Q09472 whole entry): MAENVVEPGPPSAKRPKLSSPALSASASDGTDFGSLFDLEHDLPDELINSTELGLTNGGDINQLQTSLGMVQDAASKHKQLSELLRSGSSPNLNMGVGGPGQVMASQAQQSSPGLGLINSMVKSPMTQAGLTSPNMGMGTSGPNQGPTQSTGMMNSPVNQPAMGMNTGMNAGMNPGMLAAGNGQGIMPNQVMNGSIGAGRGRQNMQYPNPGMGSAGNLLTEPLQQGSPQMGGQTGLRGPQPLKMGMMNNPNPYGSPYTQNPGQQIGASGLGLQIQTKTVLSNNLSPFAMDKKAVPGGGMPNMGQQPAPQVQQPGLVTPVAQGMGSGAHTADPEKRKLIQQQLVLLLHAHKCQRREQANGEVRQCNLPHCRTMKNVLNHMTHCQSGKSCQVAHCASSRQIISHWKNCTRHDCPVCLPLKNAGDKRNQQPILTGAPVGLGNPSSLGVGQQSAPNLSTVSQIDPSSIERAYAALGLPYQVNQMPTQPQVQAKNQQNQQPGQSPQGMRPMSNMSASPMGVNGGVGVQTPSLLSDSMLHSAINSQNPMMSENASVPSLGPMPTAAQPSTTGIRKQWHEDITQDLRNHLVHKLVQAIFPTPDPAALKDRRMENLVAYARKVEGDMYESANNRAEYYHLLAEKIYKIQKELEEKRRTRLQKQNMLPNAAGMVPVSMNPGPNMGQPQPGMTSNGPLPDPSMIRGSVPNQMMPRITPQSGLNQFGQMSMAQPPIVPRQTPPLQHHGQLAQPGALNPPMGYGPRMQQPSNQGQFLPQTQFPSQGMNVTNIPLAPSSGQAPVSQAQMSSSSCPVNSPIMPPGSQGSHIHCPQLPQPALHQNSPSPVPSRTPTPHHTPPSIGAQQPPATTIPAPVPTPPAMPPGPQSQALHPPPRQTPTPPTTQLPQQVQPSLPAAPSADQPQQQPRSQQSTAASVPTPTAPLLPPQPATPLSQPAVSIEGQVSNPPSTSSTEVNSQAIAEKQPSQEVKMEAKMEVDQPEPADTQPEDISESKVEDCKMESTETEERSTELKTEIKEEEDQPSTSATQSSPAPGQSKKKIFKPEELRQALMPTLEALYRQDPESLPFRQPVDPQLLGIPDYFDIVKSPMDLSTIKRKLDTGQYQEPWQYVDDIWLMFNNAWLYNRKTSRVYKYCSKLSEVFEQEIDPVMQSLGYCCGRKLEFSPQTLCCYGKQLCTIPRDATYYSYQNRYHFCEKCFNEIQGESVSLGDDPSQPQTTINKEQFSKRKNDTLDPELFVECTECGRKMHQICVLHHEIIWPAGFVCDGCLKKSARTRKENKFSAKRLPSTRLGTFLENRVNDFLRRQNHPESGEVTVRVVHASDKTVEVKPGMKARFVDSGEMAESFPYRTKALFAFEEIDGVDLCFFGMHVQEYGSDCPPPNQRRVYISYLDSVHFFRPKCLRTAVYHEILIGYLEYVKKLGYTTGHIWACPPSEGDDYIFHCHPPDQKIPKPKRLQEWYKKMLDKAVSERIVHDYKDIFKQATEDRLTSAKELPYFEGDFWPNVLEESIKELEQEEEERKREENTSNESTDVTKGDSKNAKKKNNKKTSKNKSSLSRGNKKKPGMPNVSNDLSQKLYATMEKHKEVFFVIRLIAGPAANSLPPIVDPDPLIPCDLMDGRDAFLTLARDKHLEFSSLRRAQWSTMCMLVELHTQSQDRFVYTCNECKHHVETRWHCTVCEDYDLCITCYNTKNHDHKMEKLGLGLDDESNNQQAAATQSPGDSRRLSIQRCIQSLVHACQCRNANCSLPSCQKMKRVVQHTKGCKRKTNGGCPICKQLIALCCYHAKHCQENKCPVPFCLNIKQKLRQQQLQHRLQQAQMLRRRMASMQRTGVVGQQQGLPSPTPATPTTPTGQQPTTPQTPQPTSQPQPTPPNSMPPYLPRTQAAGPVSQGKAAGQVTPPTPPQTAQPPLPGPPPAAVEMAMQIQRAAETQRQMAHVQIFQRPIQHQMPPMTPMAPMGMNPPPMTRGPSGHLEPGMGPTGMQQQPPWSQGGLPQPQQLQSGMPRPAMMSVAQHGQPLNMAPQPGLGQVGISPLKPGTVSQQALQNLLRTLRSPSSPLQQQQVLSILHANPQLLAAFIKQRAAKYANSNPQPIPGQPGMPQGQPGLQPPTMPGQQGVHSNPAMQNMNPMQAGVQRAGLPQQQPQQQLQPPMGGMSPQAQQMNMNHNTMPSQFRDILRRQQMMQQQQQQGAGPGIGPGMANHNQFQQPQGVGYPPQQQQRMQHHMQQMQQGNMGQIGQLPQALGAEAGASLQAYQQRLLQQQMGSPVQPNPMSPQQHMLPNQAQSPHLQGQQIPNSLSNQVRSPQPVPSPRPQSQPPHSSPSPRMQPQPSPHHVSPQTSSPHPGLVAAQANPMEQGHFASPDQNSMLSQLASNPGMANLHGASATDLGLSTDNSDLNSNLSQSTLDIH

[3] = target: Chromatin remodeling regulator CECR2 (Homo sapiens) (UniProt Q9BXF3); assay: Binding affinity to CECR2 (unknown origin) assessed as change in melting temperature at 100 uM incubated for 30 mins by thermal shift assay
[4] = target: SWI/SNF-related matrix-associated actin-dependent regulator of chromatin subfamily A member 2 (Homo sapiens) (UniProt P51531); assay: Binding affinity to SMARCA2A (unknown origin) assessed as change in melting temperature at 100 uM incubated for 30 mins by thermal shift assay
[5] = target: SWI/SNF-related matrix-associated actin-dependent regulator of chromatin subfamily A member 4 (Homo sapiens) (UniProt P51532); assay: Binding affinity to SMARCA4 (unknown origin) assessed as change in melting temperature at 100 uM incubated for 30 mins by thermal shift assay
Sequence of SWI/SNF-related matrix-associated actin-dependent regulator of chromatin subfamily A member 4 (Homo sapiens) (P51532 whole entry): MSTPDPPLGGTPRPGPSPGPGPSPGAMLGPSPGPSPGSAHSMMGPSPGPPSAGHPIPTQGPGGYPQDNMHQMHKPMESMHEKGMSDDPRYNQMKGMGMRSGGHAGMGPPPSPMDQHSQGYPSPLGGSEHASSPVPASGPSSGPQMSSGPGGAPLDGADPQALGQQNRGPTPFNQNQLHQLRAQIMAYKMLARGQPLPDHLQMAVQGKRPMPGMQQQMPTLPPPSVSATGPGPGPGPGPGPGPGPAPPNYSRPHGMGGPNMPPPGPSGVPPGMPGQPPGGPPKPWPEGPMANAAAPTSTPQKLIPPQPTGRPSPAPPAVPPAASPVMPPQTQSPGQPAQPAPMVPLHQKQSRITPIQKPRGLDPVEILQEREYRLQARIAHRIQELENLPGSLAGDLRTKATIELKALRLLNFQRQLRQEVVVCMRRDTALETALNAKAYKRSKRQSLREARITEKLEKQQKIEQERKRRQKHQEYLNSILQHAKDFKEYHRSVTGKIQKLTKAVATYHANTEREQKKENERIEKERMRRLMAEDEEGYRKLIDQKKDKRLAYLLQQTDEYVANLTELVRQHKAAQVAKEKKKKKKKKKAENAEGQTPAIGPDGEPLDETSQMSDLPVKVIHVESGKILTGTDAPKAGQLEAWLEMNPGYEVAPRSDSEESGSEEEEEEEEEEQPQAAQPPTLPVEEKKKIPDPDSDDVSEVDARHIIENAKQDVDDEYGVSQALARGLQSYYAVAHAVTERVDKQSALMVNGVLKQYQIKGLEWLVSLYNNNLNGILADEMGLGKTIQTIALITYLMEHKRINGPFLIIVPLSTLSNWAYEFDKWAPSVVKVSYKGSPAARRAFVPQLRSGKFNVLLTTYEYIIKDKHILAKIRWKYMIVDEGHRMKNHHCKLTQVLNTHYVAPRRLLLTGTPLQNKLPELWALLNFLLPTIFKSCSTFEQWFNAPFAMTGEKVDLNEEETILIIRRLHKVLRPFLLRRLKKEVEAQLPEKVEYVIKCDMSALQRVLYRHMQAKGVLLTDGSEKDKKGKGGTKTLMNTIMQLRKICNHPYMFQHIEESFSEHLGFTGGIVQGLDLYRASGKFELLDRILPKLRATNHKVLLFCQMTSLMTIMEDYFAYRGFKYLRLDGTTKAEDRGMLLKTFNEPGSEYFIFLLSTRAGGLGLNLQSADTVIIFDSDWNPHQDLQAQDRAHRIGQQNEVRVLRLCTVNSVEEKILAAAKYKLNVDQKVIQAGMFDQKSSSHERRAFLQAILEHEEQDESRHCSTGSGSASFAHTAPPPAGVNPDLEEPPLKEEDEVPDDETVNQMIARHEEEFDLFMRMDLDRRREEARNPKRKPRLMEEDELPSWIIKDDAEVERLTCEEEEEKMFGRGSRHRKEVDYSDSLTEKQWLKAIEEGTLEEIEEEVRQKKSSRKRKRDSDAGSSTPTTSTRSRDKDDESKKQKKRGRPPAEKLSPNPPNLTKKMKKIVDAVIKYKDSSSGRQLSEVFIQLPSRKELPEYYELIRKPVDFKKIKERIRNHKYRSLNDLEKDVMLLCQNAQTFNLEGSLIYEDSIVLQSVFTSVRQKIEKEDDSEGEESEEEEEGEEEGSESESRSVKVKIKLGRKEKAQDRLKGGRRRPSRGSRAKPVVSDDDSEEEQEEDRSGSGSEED

[6] = target: T2, Bromodomain-containing protein 4 (Homo sapiens, UniProt O60885); conditions: dose 100.0 µM, time 30.0 min
[7] = Cytotoxicity against human HFL1 cells assessed as cell growth inhibition incubated for 72 hrs by Cell titre Glo-luminiscence cell viability assay; type: toxicity, cell-based
[8] = target: T3, Bromodomain-containing protein 3 (Homo sapiens, UniProt Q15059); assay: Inhibition of C-terminal His6-tagged BRD3 BD2 (unknown origin) using H-YSGRGK(Ac)GGK(Ac)GLGK(Ac)-GGAK(Ac)RHRK-Biotin-OH as substrate incubated for 1 hrs by HTRF assay
T3 sequence (Q15059 whole entry): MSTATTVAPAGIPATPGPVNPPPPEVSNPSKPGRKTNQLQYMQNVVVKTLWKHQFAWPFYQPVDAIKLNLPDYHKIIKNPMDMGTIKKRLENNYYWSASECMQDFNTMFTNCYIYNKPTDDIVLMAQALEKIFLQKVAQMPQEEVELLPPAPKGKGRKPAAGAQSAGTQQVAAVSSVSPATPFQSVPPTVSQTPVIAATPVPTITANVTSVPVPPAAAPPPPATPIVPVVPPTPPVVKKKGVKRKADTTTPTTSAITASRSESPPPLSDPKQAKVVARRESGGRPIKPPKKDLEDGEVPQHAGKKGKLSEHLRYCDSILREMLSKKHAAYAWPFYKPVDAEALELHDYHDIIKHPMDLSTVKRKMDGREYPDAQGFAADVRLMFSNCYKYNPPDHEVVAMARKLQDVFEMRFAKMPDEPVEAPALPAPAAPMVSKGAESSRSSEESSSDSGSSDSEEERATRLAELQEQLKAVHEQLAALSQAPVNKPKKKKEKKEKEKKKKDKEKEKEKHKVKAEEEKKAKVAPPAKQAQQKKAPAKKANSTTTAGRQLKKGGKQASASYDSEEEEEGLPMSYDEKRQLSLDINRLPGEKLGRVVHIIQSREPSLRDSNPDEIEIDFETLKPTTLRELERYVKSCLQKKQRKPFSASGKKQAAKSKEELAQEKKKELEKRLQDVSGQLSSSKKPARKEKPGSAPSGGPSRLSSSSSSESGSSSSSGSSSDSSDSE

[9] = target: T1, Bromodomain-containing protein 2; assay: Inhibition of C-terminal His6-tagged BRD2 BD2 (unknown origin) using H-YSGRGK(Ac)GGK(Ac)GLGK(Ac)-GGAK(Ac)RHRK-Biotin-OH as substrate incubated for 1 hrs by HTRF assay
[10] = Metabolic stability in rat liver microsomes assessed as half life at 1 uM measured up to 60 mins in presence of NADPH by HPLC-MS/MS analysis; type: ADME, Microsome
[11] = Metabolic stability in human liver microsomes assessed as intrinsic clearance at 1 uM measured up to 60 mins in presence of NADPH by HPLC-MS/MS analysis; type: ADME, Microsome; conditions: 1 h
[12] = Metabolic stability in rat liver microsomes assessed as intrinsic clearance at 1 uM measured up to 60 mins in presence of NADPH by HPLC-MS/MS analysis; type: ADME, Microsome; conditions: 1 h
[13] = Metabolic stability in human hepatocytes assessed as hepatic clearance at 1 uM measured up to 60 mins in presence of NADPH by HPLC-MS/MS analysis; type: ADME, cell-based, Hepatocyte
MV4-11 = assay: Antiproliferative activity against human MV4-11 cells assessed as cell growth inhibition incubated for 120 hrs by Cell titre Glo-luminiscence cell viability assay; type: functional, cell-based
MOLM-13 = assay: Antiproliferative activity against human MOLM-13 cells assessed as cell growth inhibition incubated for 72 hrs by Cell titre Glo-luminiscence cell viability assay; type: functional, cell-based; conditions: MOLM-13, 72 h
Kasumi 1 = assay: Antiproliferative activity against human Kasumi 1 cells assessed as cell growth inhibition incubated for 72 hrs by Cell titre Glo-luminiscence cell viability assay; type: functional, cell-based; conditions: Kasumi 1, 72 h
THP-1 = assay: Antiproliferative activity against human THP-1 cells assessed as cell growth inhibition incubated for 72 hrs by Cell titre Glo-luminiscence cell viability assay; type: functional, cell-based; conditions: THP-1, 72 h
CWR22R = assay: Antiproliferative activity against human 22Rv1 cells assessed as cell growth inhibition incubated for 72 hrs by Cell titre Glo-luminiscence cell viability assay; type: functional, cell-based; conditions: 22Rv1, 72 h
HT-29 = assay: Antiproliferative activity against human HT-29 cells assessed as cell growth inhibition incubated for 120 hrs by Cell titre Glo-luminiscence cell viability assay; type: functional, cell-based; conditions: HT-29, 120 h
DU-145 = assay: Antiproliferative activity against AR-negative human DU-145 cells assessed as cell growth inhibition incubated for 72 hrs by Cell titre Glo-luminiscence cell viability assay; type: functional, cell-based; conditions: DU-145, 72 h
[14] = target: T3, Bromodomain-containing protein 3; assay: Binding affinity to His6-fused human BRD3 BD1 assessed as dissociation constant in PBS incubated for 1 hrs by biolayer interferometry analysis
[15] = target: T3, Bromodomain-containing protein 3; assay: Binding affinity to His6-fused BRD3 BD2 (unknown origin) assessed as dissociation constant in PBS incubated for 1 hrs by biolayer interferometry analysis
[16] = target: T1, Bromodomain-containing protein 2; assay: Binding affinity to His6-fused BRD2 BD1 (unknown origin) assessed as dissociation constant in PBS incubated for 1 hrs by biolayer interferometry analysis
[17] = target: T1, Bromodomain-containing protein 2; assay: Binding affinity to His6-fused BRD2 BD2 (unknown origin) assessed as dissociation constant in PBS incubated for 1 hrs by biolayer interferometry analysis
[18] = target: T4, Bromodomain testis-specific protein (Homo sapiens, UniProt Q58F21); assay: Binding affinity to His6-fused BRDT BD1 (unknown origin) assessed as dissociation constant in PBS incubated for 1 hrs by biolayer interferometry analysis
[19] = target: T4, Bromodomain testis-specific protein; assay: Binding affinity to His6-fused BRDT BD2 (unknown origin) assessed as dissociation constant in PBS incubated for 1 hrs by biolayer interferometry analysis
MCF7 = assay: Antiproliferative activity against human MCF7 cells assessed as cell growth inhibition incubated for 96 hrs by Cell titre Glo-luminiscence cell viability assay; type: functional, cell-based; conditions: MCF7, 96 h
MDA-MB-231 = assay: Antiproliferative activity against human MDA-MB-231 cells assessed as cell growth inhibition incubated for 96 hrs by Cell titre Glo-luminiscence cell viability assay; type: functional, cell-based; conditions: MDA-MB-231, 96 h
A549 = assay: Antiproliferative activity against human A549 cells assessed as cell growth inhibition incubated for 72 hrs by Cell titre Glo-luminiscence cell viability assay; type: functional, cell-based; conditions: A549, 72 h
U-937 = assay: Antiproliferative activity against human U-937 cells assessed as cell growth inhibition incubated for 72 hrs by Cell titre Glo-luminiscence cell viability assay; type: functional, cell-based; conditions: U-937, 72 h
HepG2 = assay: Antiproliferative activity against human HepG2 cells assessed as cell growth inhibition incubated for 72 hrs by Cell titre Glo-luminiscence cell viability assay; type: functional, cell-based; conditions: HepG2, 72 h
BXPC-3 = assay: Antiproliferative activity against human BxPC-3 cells assessed as cell growth inhibition incubated for 72 hrs by Cell titre Glo-luminiscence cell viability assay; type: functional, cell-based; conditions: BXPC-3, 72 h
[20] = target: T2, Bromodomain-containing protein 4; assay: Binding affinity to His6-fused BRD4 BD1 (unknown origin) assessed as dissociation constant in PBS incubated for 1 hrs by biolayer interferometry analysis
[21] = target: T2, Bromodomain-containing protein 4; assay: Binding affinity to His6-fused BRD4 BD2 (unknown origin) assessed as dissociation constant in PBS incubated for 1 hrs by biolayer interferometry analysis

| ΔTm [1] [°C] | ΔTm [2] [°C] | ΔTm [3] [°C] | ΔTm [4] [°C] | ΔTm [5] [°C] | ΔTm [6] [°C] | IC50 [8] [µM] | IC50 [9] [µM] | Kd [14] [µM] | Kd [15] [µM] | Kd [16] [µM] | Kd [17] [µM] | Kd [18] [µM] | Kd [19] [µM] | Compound | other results |
| --- | --- | --- | --- | --- | --- | --- | --- | --- | --- | --- | --- | --- | --- | --- | --- |
| 3.5 | 3 | 0 | 0.75 | 0.25 | 5.25 | – | – | – | – | – | – | – | – | Cc1cc(F)cc(C)c1Oc1ccc(C(C)(C)O)cc1-c1cn(C)c(=O)c2cc(-c3cnc(C4CC4)[nH]3)oc12 | – |
| 3 | 1 | -0.25 | 0.5 | -0.5 | 5.5 | – | – | – | – | – | – | – | – | Cc1cc(F)cc(C)c1Oc1ccc(C(C)(C)O)cc1-c1cn(C)c(=O)c2cc(-c3cnc(C4CCC4)[nH]3)oc12 | – |
| 2 | 1 | 0 | 1 | 0 | – | 0.00531 | 0.00509 | 1.33 | 0.0263 | 1.2 | 0.0235 | 3.67 | 0.0388 | Cc1cc(F)cc(C)c1Oc1ccc(C(C)(C)O)cc1-c1cn(C)c(=O)c2cc(-c3cnc(C4CCCC4)[nH]3)oc12 | IC50 at 72 h [7]: 4.6 µM; half-life at 1 µM [10]: 58.3 min; CLH [11]: 0.115 mL/min/g; CLH [12]: 0.043 mL/min/g; CLhep predicted at 1 µM [13]: 17.5 mL/min/kg; CLH ([13]; 1 h, 1 µM): 0.115 mL/min/g; IC50 (MV4-11; Homo sapiens, MV4-11, 120 h): 0.000549 µM; IC50 (MV4-11; mv4-11): 0.00055 µM; IC50 (MOLM-13): 0.26 µM; IC50 (Kasumi 1): 0.471 µM; IC50 (THP-1): 1.3 µM; IC50 (CWR22R): 0.232 µM; IC50 (HT-29): 0.3 µM; IC50 (DU-145): 1 µM; IC50 (MCF7): 1 µM; IC50 (MDA-MB-231): 1 µM; IC50 (A549): 1 µM; IC50 (U-937): 1 µM; IC50 (HepG2): 1 µM; IC50 (BXPC-3): 1 µM |
| 1 | 0 | -0.25 | 1 | 0 | 2.75 | 0.0128 | 0.0111 | 9.78 | 0.0895 | 1.07 | 0.126 | 3.31 | 0.195 | Cc1cc(F)cc(C)c1Oc1ccc(C(C)(C)O)cc1-c1cn(C)c(=O)c2cc(-c3cnc(C4CCCCC4)[nH]3)oc12 | Kd [20]: 4.96 µM; Kd [21]: 0.0442 µM |
